Where two headings read alike, the source gives them in different places.
Legend:
Assay type in all cases: in vivo, human
[1] = Phase 1 single dose study: pharmacokinetics of ertugliflozin in renal impairment; settings: single 15 mg oral dose; for AUC(0-inf) / Cmax: geometric mean
Description: (§1) Results of a Phase I, Single Dose Study to Study the Effect of Renal Impairment on the Pharmacokinetics and Pharmacodynamics of Ertugliflozin in Subjects with Type 2 Diabetes Mellitus (T2DM)
(§2) Ertugliflozin inhibits renal glucose reabsorption resulting in urinary glucose excretion, thereby reducing plasma glucose and HbA1c. The glycemic efficacy of SGLT2 inhibitors depends on the amount of glucose filtered through the kidney and the kidney is potentially a site of ertugliflozin metabolism. As renal impairment (RI) is a co-morbidity of T2DM, this study evaluated the effect of RI on the pharmacokinetics, pharmacodynamics (as measured by 24-hour urinary glucose excretion [UGE24]), safety, and tolerability of ertugliflozin in subjects with T2DM.
(§3) In this Phase 1, multi-center, open-label study, a single 15 mg oral dose of ertugliflozin was administered in the fasted state to healthy and T2DM subjects with normal renal function (estimated glomerular filtration rate [eGFR]≥90 mL/min) and in T2DM subjects with mild RI (eGFR 60-89 mL/min), moderate RI (eGFR 30-59 mL/min) and severe RI (eGFR<30 mL/min). Serial blood samples and urine samples at specified intervals were collected for 96 hours post-dose for pharmacokinetic evaluation and for measurement of UGE24.

[2] = system: urinary glucose excretion; assay: Phase 1 single dose study: pharmacodynamics, 24-hour urinary glucose excretion (UGE24); settings: single 15 mg oral dose; for Change from baseline in UGE24: fasted, geometric mean
Description: as §1, §2, §3

[3] = system: healthy and T2DM subjects; assay: Phase 1 single dose study: safety and tolerability; settings: single 15 mg dose; subjects with normal renal function and T2DM subjects with renal impairment
Description: as §2, §3

[4] = Healthy Normal renal function (eGFR>=90 mL/min), n = 8, fasted
[5] = T2DM Normal renal function (eGFR>=90 mL/min), n = 6, fasted

AUC(0-inf) [1, 4]: 1236 ng·h/mL
Cmax [1, 4]: 219 ng/mL
Cmax ([1]; T2DM Mild RI (eGFR 60-89 mL/min), n = 8, fasted): 313 ng/mL
Cmax ([1]; T2DM Moderate RI (eGFR 30-59 mL/min), n = 8, fasted): 306 ng/mL
AUC(0-inf) [1, 5]: 1199 ng·h/mL
Cmax [1, 5]: 216 ng/mL
Cmax ([1]; T2DM Severe RI (eGFR<30 mL/min), n = 6, fasted): 196 ng/mL
effect of renal insufficiency on systemic exposure ([1]; compared to subjects with normal renal function): moderately increased
AUC(0-inf) ([1]; human, in vivo, po, 15 mg, T2DM Mild RI (eGFR 60-89 mL/min), n = 8, fasted, read-out: AUC0-inf): 1910 ng·h/mL
AUC(0-inf) ([1]; human, in vivo, po, 15 mg, T2DM Moderate RI (eGFR 30-59 mL/min), n = 8, fasted, read-out: AUC0-inf): 2080 ng·h/mL
AUC(0-inf) ([1]; human, in vivo, po, 15 mg, T2DM Severe RI (eGFR<30 mL/min), n = 6, fasted, read-out: AUC0-inf): 1900 ng·h/mL
exposures in healthy subjects versus T2DM subjects with normal renal function ([1]; fasted): similar
Structure (SMILES): CCOc1ccc(Cc2cc([C@]34OC[C@](CO)(O3)[C@@H](O)[C@H](O)[C@H]4O)ccc2Cl)cc1 [Ertugliflozin, (1S,2S,3S,4R,5S)-5-[4-chloro-3-(4-ethoxy-benzyl)-phenyl]-1-hydroxymethyl-6,8-dioxa-bicyclo[3.2.1]octane-2,3,4-triol]
Change from baseline in UGE24 ([2]; Healthy Normal renal function (eGFR>=90 mL/min), n = 8): 46.3 g
Change from baseline in UGE24 ([2]; T2DM Mild RI (eGFR 60-89 mL/min), n = 8): 36.0 g
Change from baseline in UGE24 ([2]; T2DM Moderate RI (eGFR 30-59 mL/min), n = 8): 27.6 g
Change from baseline in UGE24 ([2]; T2DM Normal renal function (eGFR>=90 mL/min), n = 6): 72.3 g
Change from baseline in UGE24 ([2]; T2DM Severe RI (eGFR<30 mL/min), n = 6): 10.1 g
UGE24 trend with renal function ([2]; despite the higher exposure): decreased with declining renal function
tolerability [3]: well tolerated
